# Patent US5707966A, “Antithrombotic agents” (Eli Lilly and Company, priority 1995, dated 1998)
# Where a name gives a salt, the structure may show the parent alone.
# How the values were obtained:
# Assay type in all cases: biochemical
# t-PA = molecular target: T1, t-PA (Homo sapiens, UniProt P00750); experiment: Kass with t-PA, chromogenic substrate; conditions: substrate H-D-Ile-Pro-Arg-p-nitroanilide
# T1 construct: purchased American Diagnostica, Greenwich, Conn
# Bovine trypsin = molecular target: T2, Bovine trypsin (Bos taurus, UniProt P00760); experiment: Kass with trypsin, chromogenic substrate; conditions: substrate N-Benzoyl-Phe-Val-Arg-p-nitroanilide
# T2 construct: Bovine trypsin is purchased; purchased Worthington Biochemicals, Freehold, N.J
# T2 sequence (P00760 24-246): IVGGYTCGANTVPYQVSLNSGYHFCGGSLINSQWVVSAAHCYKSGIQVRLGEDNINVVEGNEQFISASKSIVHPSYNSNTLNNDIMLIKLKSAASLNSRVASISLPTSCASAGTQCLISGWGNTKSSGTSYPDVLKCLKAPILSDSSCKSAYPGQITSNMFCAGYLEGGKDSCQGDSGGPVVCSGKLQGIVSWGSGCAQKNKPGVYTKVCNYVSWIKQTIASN
# Human plasma [1] = experiment: Human plasma anticoagulation, activated partial thromboplastin time (APTT); conditions: concentration required to double the APTT, linear extrapolation
# Outline: (§1)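 Test compounds are added to human plasma at many concentrations. Clotting is then initiated by reagent (Thromboplastin-C for PT; Actin for 120 s followed by 0.02M calcium chloride for APTT; 10 NIH units/mL bovine thrombin for TT) and timed instrumentally. The concentration giving twofold prolongation is derived by linear extrapolation.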
# Human plasmin = molecular target: T3, Human plasmin (Homo sapiens, UniProt P00747); experiment: Kass with plasmin, chromogenic substrate; conditions: substrate H-D-Val-Leu-Lys-p-nitroanilide
# T3 construct: Human plasmin is purchased; purchased Boehringer Mannheim, Indianapolis, Ind
# Human plasma [2] = experiment: Human plasma anticoagulation, thrombin time (TT); conditions: concentration required to double the thrombin time, linear extrapolation
# Outline: as §1
# factor Xa = molecular target: T4, factor Xa (Homo sapiens, UniProt P00742); experiment: Kass with factor Xa, chromogenic substrate; conditions: substrate N-Benzoyl-Ile-Glu-Gly-Arg-p-nitroanilide
# T4 construct: Human factors X, Xa, IXa, XIa, and XIIa are purchased; purchased Enzyme Research Laboratories, South Bend, Ind
# Human Thrombin = Human Thrombin (Homo sapiens, UniProt P00734); experiment: Inhibition of amidase activity of thrombin (Kass); conditions: mean over a range of concentrations; […]
# Human plasma [3] = experiment: Human plasma anticoagulation, prothrombin time (PT); conditions: concentration required to double the PT, linear extrapolation
# Outline: as §1
# T4 sequence (P00742 235-488 limits assumed): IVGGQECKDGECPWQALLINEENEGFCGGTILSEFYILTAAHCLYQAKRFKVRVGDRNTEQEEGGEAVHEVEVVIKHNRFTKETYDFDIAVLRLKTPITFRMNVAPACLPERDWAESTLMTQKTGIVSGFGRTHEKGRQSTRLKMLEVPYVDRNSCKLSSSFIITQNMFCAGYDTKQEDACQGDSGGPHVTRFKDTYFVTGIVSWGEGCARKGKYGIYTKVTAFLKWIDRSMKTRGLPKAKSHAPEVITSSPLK
# T4 sequence (P00742 41-179 partner limits assumed): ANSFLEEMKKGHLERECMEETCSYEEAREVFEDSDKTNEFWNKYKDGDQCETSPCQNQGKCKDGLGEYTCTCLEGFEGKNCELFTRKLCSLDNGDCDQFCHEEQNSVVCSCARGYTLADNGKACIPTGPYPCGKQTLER
# T1 sequence (P00750 36-562): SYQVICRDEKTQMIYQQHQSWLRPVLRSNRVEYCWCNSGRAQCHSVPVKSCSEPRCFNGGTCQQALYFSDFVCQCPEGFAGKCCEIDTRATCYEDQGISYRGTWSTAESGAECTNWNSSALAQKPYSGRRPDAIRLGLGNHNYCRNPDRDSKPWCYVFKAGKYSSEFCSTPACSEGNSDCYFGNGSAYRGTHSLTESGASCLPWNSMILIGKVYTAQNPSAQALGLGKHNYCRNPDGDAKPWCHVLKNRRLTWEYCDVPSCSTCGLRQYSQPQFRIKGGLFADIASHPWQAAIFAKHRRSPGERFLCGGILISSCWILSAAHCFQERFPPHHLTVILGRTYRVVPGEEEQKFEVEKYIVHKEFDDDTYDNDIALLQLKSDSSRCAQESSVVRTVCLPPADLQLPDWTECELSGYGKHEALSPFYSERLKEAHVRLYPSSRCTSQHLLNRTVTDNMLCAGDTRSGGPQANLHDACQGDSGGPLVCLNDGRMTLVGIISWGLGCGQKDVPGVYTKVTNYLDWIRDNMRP
# T3 sequence (P00747 97-810): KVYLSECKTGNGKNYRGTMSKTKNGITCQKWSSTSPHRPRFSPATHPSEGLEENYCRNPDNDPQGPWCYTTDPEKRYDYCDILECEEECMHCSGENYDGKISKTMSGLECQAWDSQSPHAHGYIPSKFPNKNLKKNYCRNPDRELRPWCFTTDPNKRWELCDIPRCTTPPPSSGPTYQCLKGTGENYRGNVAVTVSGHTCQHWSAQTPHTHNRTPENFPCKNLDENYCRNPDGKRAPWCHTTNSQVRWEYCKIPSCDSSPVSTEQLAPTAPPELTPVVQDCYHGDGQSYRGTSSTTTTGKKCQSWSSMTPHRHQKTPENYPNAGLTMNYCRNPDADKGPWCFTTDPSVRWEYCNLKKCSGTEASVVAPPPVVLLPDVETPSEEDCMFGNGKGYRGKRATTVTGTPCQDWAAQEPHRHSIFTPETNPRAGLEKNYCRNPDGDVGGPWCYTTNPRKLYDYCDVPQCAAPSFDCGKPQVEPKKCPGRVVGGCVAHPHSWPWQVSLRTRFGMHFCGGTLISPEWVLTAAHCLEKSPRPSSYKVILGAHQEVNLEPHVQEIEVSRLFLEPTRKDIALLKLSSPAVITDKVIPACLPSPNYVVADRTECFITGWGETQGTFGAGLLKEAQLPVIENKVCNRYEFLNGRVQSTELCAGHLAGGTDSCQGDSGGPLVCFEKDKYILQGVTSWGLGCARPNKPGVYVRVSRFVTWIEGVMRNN
# T3 sequence (P00747 97-580 partner limits assumed): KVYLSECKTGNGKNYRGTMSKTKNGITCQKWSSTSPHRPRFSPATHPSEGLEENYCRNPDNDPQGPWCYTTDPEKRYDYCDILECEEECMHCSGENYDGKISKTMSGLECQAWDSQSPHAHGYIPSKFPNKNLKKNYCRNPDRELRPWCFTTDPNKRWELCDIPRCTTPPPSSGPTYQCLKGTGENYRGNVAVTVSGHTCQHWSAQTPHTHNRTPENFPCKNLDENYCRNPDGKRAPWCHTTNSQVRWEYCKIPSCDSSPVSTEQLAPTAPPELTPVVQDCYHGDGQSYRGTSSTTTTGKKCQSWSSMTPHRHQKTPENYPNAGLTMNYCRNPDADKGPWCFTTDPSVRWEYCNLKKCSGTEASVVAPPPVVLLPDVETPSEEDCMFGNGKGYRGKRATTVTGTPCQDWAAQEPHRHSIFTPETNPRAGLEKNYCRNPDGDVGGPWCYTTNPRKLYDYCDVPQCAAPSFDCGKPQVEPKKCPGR
Compound,Kass t-PA (t-PA),Kass Trypsin (Bovine trypsin),Kass Plasmin (Human plasmin),Kass Xa (factor Xa),Kass Human Thrombin (Human Thrombin),Human Plasma Anticoagulation 2× Clotting time APTT (Human plasma [1]),Human Plasma Anticoagulation 2× Clotting time TT (Human plasma [2]),Human Plasma Anticoagulation 2× Clotting time PT (Human plasma [3])
"O=C(O)CN[C@H](CC1CCCCC1)C(=O)N1CCC[C@H]1C(=O)NCCCC1=CCNCC1 [Example 60, HO2 CCH2 -D-Cha-Pro-4-NHCH2 CH2 CH2 -3,4-dehydro-piperidine.HCl]",< 0.001 × 10^6 (L/mole),0.03 × 10^6 (L/mole),< 0.001 × 10^6 (L/mole),< 0.001 × 10^6 (L/mole),0.24 × 10^6 (L/mole),"22,200 ng/mL","3,200 ng/mL","77,700 ng/mL"
D-hPro-N(PhCH2 CH2)Gly-p-NHCH2 --C6 H4 C(NH)NH2.2HCl [Example 21],0.002 × 10^6 (L/mole),0.96 × 10^6 (L/mole),0.031 × 10^6 (L/mole),0.62 × 10^6 (L/mole),3.6 × 10^6 (L/mole),"2,000 ng/mL",160 ng/mL,"1,000 ng/mL"
D-hPro-Pro-p-NHCH2 C6 H4 C(NH)NH2.HCl [Example 17],0.0034 × 10^6 (L/mole),3.8 × 10^6 (L/mole),0.024 × 10^6 (L/mole),0.049 × 10^6 (L/mole),33 × 10^6 (L/mole),370 ng/mL,26 ng/mL,400 ng/mL

# Continued, in another order:
Kass t-PA (t-PA),Kass Trypsin (Bovine trypsin),Kass Plasmin (Human plasmin),Kass Xa (factor Xa),Kass Human Thrombin (Human Thrombin),Compound,Human Plasma Anticoagulation 2× Clotting time APTT (Human plasma [1]),Human Plasma Anticoagulation 2× Clotting time TT (Human plasma [2]),Human Plasma Anticoagulation 2× Clotting time PT (Human plasma [3])
0.008 × 10^6 (L/mole),1.0 × 10^6 (L/mole),0.004 × 10^6 (L/mole),0.03 × 10^6 (L/mole),63 × 10^6 (L/mole),"N=C(N)NCCCCNC(=O)[C@@H]1CCCN1C(=O)[C@@H]1NCC[C@H]2CCCC[C@H]21 [Example 61, N-[4-[(aminoiminomethyl)amino]butyl]-1-[[(4aR,8aR)-decahydro-1(R)-isoquinolinyl]carbonyl]-1-prolinamide trihydrochloride]",679 ng/mL,45 ng/mL,756 ng/mL
0.004 × 10^6 (L/mole),8.5 × 10^6 (L/mole),0.042 × 10^6 (L/mole),0.043 × 10^6 (L/mole),3.0 × 10^6 (L/mole),D-hPro-Pro(4-cis-PhO)-p-NHCH2 --C6 H4 C(NH)NH2.2HCl [Example 22],"2,300 ng/mL",170 ng/mL,"1,000 ng/mL"
0.31 × 10^6 (L/mole),21 × 10^6 (L/mole),0.44 × 10^6 (L/mole),0.14 × 10^6 (L/mole),770 × 10^6 (L/mole),EtSO2 -D-Phe-Pro-p-NHCH2 --C6 H4 C(=NH)NH2.HCl [Example 23],86 ng/mL,7 ng/mL,120 ng/mL
